System: MDA-MB-468
Experiment: Cytotoxicity against human MDA-MB-468 cells assessed as growth inhibition at 10 uM after 48 hrs by SRB assay relative to control
Format: functional
Conditions: MDA-MB-468, 48 h, read-out: GI

Structure (SMILES) | inhibition of growth at 10 µM [%]
O=c1oc2cc(Br)ccc2cc1-c1nc2ccccc2[nH]1 | < 20

System: Hs-578T
Experiment: Cytotoxicity against human Hs578T cells assessed as growth inhibition at 10 uM after 48 hrs by SRB assay relative to control
Format: functional
Conditions: read-out: GI

Structure (SMILES) | inhibition of growth at 10 µM [%]
O=c1oc2cc(Br)ccc2cc1-c1nc2ccccc2[nH]1 | 25.1

System: MDA-MB-231
Experiment: Cytotoxicity against human MDA-MB-231 cells assessed as growth inhibition at 10 uM after 48 hrs by SRB assay relative to control
Format: functional
Conditions: MDA-MB-231, 48 h, read-out: GI

Structure (SMILES) | inhibition of growth at 10 µM [%]
O=c1oc2cc(Br)ccc2cc1-c1nc2ccccc2[nH]1 | 26

System: MCF7
Experiment: Cytotoxicity against human MCF7 cells assessed as growth inhibition at 10 uM after 48 hrs by SRB assay relative to control
Format: functional
Conditions: MCF7, 48 h, read-out: GI

Structure (SMILES) | inhibition of growth at 10 µM [%]
O=c1oc2cc(Br)ccc2cc1-c1nc2ccccc2[nH]1 | 30

System: DU-145
Experiment: Cytotoxicity against human DU145 cells assessed as growth inhibition at 10 uM after 48 hrs by SRB assay relative to control
Format: functional
Conditions: DU-145, 48 h, read-out: GI

Structure (SMILES) | inhibition of growth at 10 µM [%]
O=c1oc2cc(Br)ccc2cc1-c1nc2ccccc2[nH]1 | 23.6

System: PC-3
Experiment: Cytotoxicity against human PC3 cells assessed as growth inhibition at 10 uM after 48 hrs by SRB assay relative to control
Format: functional
Conditions: PC-3, 48 h, read-out: GI

Structure (SMILES) | inhibition of growth at 10 µM [%]
O=c1oc2cc(Br)ccc2cc1-c1nc2ccccc2[nH]1 | < 20

System: UO-31
Experiment: Cytotoxicity against human UO31 cells assessed as growth inhibition at 10 uM after 48 hrs by SRB assay relative to control
Format: functional
Conditions: UO-31, 48 h, read-out: GI

Structure (SMILES) | inhibition of growth at 10 µM [%]
O=c1oc2cc(Br)ccc2cc1-c1nc2ccccc2[nH]1 | 22.7

System: SN12C
Experiment: Cytotoxicity against human SN12C cells assessed as growth inhibition at 10 uM after 48 hrs by SRB assay relative to control
Format: functional
Conditions: read-out: GI

Structure (SMILES) | inhibition of growth at 10 µM [%]
O=c1oc2cc(Br)ccc2cc1-c1nc2ccccc2[nH]1 | < 20

System: ACHN
Experiment: Cytotoxicity against human ACHN cells assessed as growth inhibition at 10 uM after 48 hrs by SRB assay relative to control
Format: functional
Conditions: read-out: GI

Structure (SMILES) | inhibition of growth at 10 µM [%]
O=c1oc2cc(Br)ccc2cc1-c1nc2ccccc2[nH]1 | < 20

System: SK-OV-3
Experiment: Cytotoxicity against human SKOV3 cells assessed as growth inhibition at 10 uM after 48 hrs by SRB assay relative to control
Format: functional
Conditions: SK-OV-3, 48 h, read-out: GI

Structure (SMILES) | inhibition of growth at 10 µM [%]
O=c1oc2cc(Br)ccc2cc1-c1nc2ccccc2[nH]1 | < 20

System: A498
Experiment: Cytotoxicity against human A498 cells assessed as growth inhibition at 10 uM after 48 hrs by SRB assay relative to control
Format: functional
Conditions: A498, 48 h, read-out: GI

Structure (SMILES) | inhibition of growth at 10 µM [%]
O=c1oc2cc(Br)ccc2cc1-c1nc2ccccc2[nH]1 | < 20

System: not listed separately
Experiment: Cytotoxicity against human NCI-ADR-RES cells assessed as growth inhibition at 10 uM after 48 hrs by SRB assay relative to control
Format: functional
Conditions: read-out: GI

Structure (SMILES) | inhibition of growth at 10 µM [%]
O=c1oc2cc(Br)ccc2cc1-c1nc2ccccc2[nH]1 | < 20

System: OVCAR-8
Experiment: Cytotoxicity against human OVCAR8 cells assessed as growth inhibition at 10 uM after 48 hrs by SRB assay relative to control
Format: functional
Conditions: OVCAR-8, 48 h, read-out: GI

Structure (SMILES) | inhibition of growth at 10 µM [%]
O=c1oc2cc(Br)ccc2cc1-c1nc2ccccc2[nH]1 | < 20

System: OVCAR-4
Experiment: Cytotoxicity against human OVCAR4 cells assessed as growth inhibition at 10 uM after 48 hrs by SRB assay relative to control
Format: functional
Conditions: OVCAR-4, 48 h, read-out: GI

Structure (SMILES) | inhibition of growth at 10 µM [%]
O=c1oc2cc(Br)ccc2cc1-c1nc2ccccc2[nH]1 | < 20

System: IGROV-1
Experiment: Cytotoxicity against human IGROV1 cells assessed as growth inhibition at 10 uM after 48 hrs by SRB assay relative to control
Format: functional
Conditions: IGROV-1, 48 h, read-out: GI

Structure (SMILES) | inhibition of growth at 10 µM [%]
O=c1oc2cc(Br)ccc2cc1-c1nc2ccccc2[nH]1 | < 20

System: UACC-62
Experiment: Cytotoxicity against human UACC62 cells assessed as growth inhibition at 10 uM after 48 hrs by SRB assay relative to control
Format: functional
Conditions: UACC-62, 48 h, read-out: GI

Structure (SMILES) | inhibition of growth at 10 µM [%]
O=c1oc2cc(Br)ccc2cc1-c1nc2ccccc2[nH]1 | < 20

System: M14
Experiment: Cytotoxicity against human M14 cells assessed as growth inhibition at 10 uM after 48 hrs by SRB assay relative to control
Format: functional
Conditions: M14, 48 h, read-out: GI

Structure (SMILES) | inhibition of growth at 10 µM [%]
O=c1oc2cc(Br)ccc2cc1-c1nc2ccccc2[nH]1 | < 20

System: Malme-3M
Experiment: Cytotoxicity against human MALME-3M cells assessed as growth inhibition at 10 uM after 48 hrs by SRB assay relative to control
Format: functional
Conditions: read-out: GI

Structure (SMILES) | inhibition of growth at 10 µM [%]
O=c1oc2cc(Br)ccc2cc1-c1nc2ccccc2[nH]1 | < 20

System: U-251
Experiment: Cytotoxicity against human U251 cells assessed as growth inhibition at 10 uM after 48 hrs by SRB assay relative to control
Format: functional
Conditions: U-251, 48 h, read-out: GI

Structure (SMILES) | inhibition of growth at 10 µM [%]
O=c1oc2cc(Br)ccc2cc1-c1nc2ccccc2[nH]1 | < 20

System: SNB-75
Experiment: Cytotoxicity against human SNB75 cells assessed as growth inhibition at 10 uM after 48 hrs by SRB assay relative to control
Format: functional
Conditions: SNB-75, 48 h, read-out: GI

Structure (SMILES) | inhibition of growth at 10 µM [%]
O=c1oc2cc(Br)ccc2cc1-c1nc2ccccc2[nH]1 | 22.9

System: SF-539
Experiment: Cytotoxicity against human SF539 cells assessed as growth inhibition at 10 uM after 48 hrs by SRB assay relative to control
Format: functional
Conditions: SF-539, 48 h, read-out: GI

Structure (SMILES) | inhibition of growth at 10 µM [%]
O=c1oc2cc(Br)ccc2cc1-c1nc2ccccc2[nH]1 | < 20

System: SF-268
Experiment: Cytotoxicity against human SF268 cells assessed as growth inhibition at 10 uM after 48 hrs by SRB assay relative to control
Format: functional
Conditions: SF-268, 48 h, read-out: GI

Structure (SMILES) | inhibition of growth at 10 µM [%]
O=c1oc2cc(Br)ccc2cc1-c1nc2ccccc2[nH]1 | < 20

System: SW-620
Experiment: Cytotoxicity against human SW620 cells assessed as growth inhibition at 10 uM after 48 hrs by SRB assay relative to control
Format: functional
Conditions: SW-620, 48 h, read-out: GI

Structure (SMILES) | inhibition of growth at 10 µM [%]
O=c1oc2cc(Br)ccc2cc1-c1nc2ccccc2[nH]1 | < 20

System: HCT-15
Experiment: Cytotoxicity against human HCT15 cells assessed as growth inhibition at 10 uM after 48 hrs by SRB assay relative to control
Format: functional
Conditions: HCT-15, 48 h, read-out: GI

Structure (SMILES) | inhibition of growth at 10 µM [%]
O=c1oc2cc(Br)ccc2cc1-c1nc2ccccc2[nH]1 | < 20

System: HCC 2998
Experiment: Cytotoxicity against human HCC2998 cells assessed as growth inhibition at 10 uM after 48 hrs by SRB assay relative to control
Format: functional
Conditions: HCC 2998, 48 h, read-out: GI

Structure (SMILES) | inhibition of growth at 10 µM [%]
O=c1oc2cc(Br)ccc2cc1-c1nc2ccccc2[nH]1 | < 20

System: HCT-116
Experiment: Cytotoxicity against human HCT116 cells assessed as growth inhibition at 10 uM after 48 hrs by SRB assay relative to control
Format: functional
Conditions: HCT-116, 48 h, read-out: GI

Structure (SMILES) | inhibition of growth at 10 µM [%]
O=c1oc2cc(Br)ccc2cc1-c1nc2ccccc2[nH]1 | < 20

System: NCI-H23
Experiment: Cytotoxicity against human NCI-H23 cells assessed as growth inhibition at 10 uM after 48 hrs by SRB assay relative to control
Format: functional
Conditions: NCI-H23, 48 h, read-out: GI

Structure (SMILES) | inhibition of growth at 10 µM [%]
O=c1oc2cc(Br)ccc2cc1-c1nc2ccccc2[nH]1 | < 20

System: NCI-H226
Experiment: Cytotoxicity against human NCI-H226 cells assessed as growth inhibition at 10 uM after 48 hrs by SRB assay relative to control
Format: functional
Conditions: NCI-H226, 48 h, read-out: GI

Structure (SMILES) | inhibition of growth at 10 µM [%]
O=c1oc2cc(Br)ccc2cc1-c1nc2ccccc2[nH]1 | < 20

System: HOP-62
Experiment: Cytotoxicity against human HOP62 cells assessed as growth inhibition at 10 uM after 48 hrs by SRB assay relative to control
Format: functional
Conditions: HOP-62, 48 h, read-out: GI

Structure (SMILES) | inhibition of growth at 10 µM [%]
O=c1oc2cc(Br)ccc2cc1-c1nc2ccccc2[nH]1 | < 20

System: HOP-92
Experiment: Cytotoxicity against human HOP92 cells assessed as growth inhibition at 10 uM after 48 hrs by SRB assay relative to control
Format: functional
Conditions: HOP-92, 48 h, read-out: GI

Structure (SMILES) | inhibition of growth at 10 µM [%]
O=c1oc2cc(Br)ccc2cc1-c1nc2ccccc2[nH]1 | 20.1

System: RPMI-8226
Experiment: Cytotoxicity against human RPMI8226 cells assessed as growth inhibition at 10 uM after 48 hrs by SRB assay relative to control
Format: functional
Conditions: RPMI-8226, 48 h, read-out: GI

Structure (SMILES) | inhibition of growth at 10 µM [%]
O=c1oc2cc(Br)ccc2cc1-c1nc2ccccc2[nH]1 | < 20

System: MOLT-4
Experiment: Cytotoxicity against human MOLT4 cells assessed as growth inhibition at 10 uM after 48 hrs by SRB assay relative to control
Format: functional
Conditions: MOLT-4, 48 h, read-out: GI

Structure (SMILES) | inhibition of growth at 10 µM [%]
O=c1oc2cc(Br)ccc2cc1-c1nc2ccccc2[nH]1 | < 20

System: HL-60(TB)
Experiment: Cytotoxicity against human HL-60(TB) cells assessed as growth inhibition at 10 uM after 48 hrs by SRB assay relative to control
Format: functional
Conditions: HL-60, 48 h, read-out: GI

Structure (SMILES) | inhibition of growth at 10 µM [%]
O=c1oc2cc(Br)ccc2cc1-c1nc2ccccc2[nH]1 | < 20

System: K562
Experiment: Cytotoxicity against human K562 cells assessed as growth inhibition at 10 uM after 48 hrs by SRB assay relative to control
Format: functional
Conditions: K562, 48 h, read-out: GI

Structure (SMILES) | inhibition of growth at 10 µM [%]
O=c1oc2cc(Br)ccc2cc1-c1nc2ccccc2[nH]1 | < 20

System: CCRF-CEM
Experiment: Cytotoxicity against human CCRF-CEM cells assessed as growth inhibition at 10 uM after 48 hrs by SRB assay relative to control
Format: functional
Conditions: read-out: GI

Structure (SMILES) | inhibition of growth at 10 µM [%]
O=c1oc2cc(Br)ccc2cc1-c1nc2ccccc2[nH]1 | < 20

Source: ChEMBL document CHEMBL2396528, “Synthesis of new conjugated coumarin-benzimidazole hybrids and their anticancer activity” (2013)
